Experimental data published in patent publication US20080201790A1, “Method and product for regulating cell responsiveness to external signals” (priority 1993, published 2008).
Entries after “also recorded” stand apart in the source; their conditions may differ. Values belong to the compound of their own block, whether it stands above or below them.

Legend:
GST-Ras^V12 = experiment: Direct binding of purified MEKKCOOH-His to GST-Ras^V12, read by phosphorylation of kinase inactive MEK1; conditions: 100 μM peptide, pre-incubation 1 hr at 4° C.
Description: A construct encoding the kinase domain of a Rat MEKK1 cDNA (95% identical to mouse MEKK1) with a N-terminal hexahistidine tag (referred to herein as MEKKCOOH-His; provided by Dr. Melanie Cobb, Department of Pharmacology, University of Texas Southwestern Medical School, Dallas, Tex.) was expressed in bacteria and soluble active enzyme was purified on Ni2+-NTA agarose according to the method generally described in Gardner et al. (Methods of Enzymology 238:258-270, 1994) Purified recombinant MEKKCOOH-His was incubated with either GST or GST-Ras^V12 in PAN buffer (10 mM PIPES [pH 7.0], 100 mM NaCl, 0.2 U/ml aprotinin) for 1 hr at 4° C. The agarose beads were pelleted and washed 3 times in PAN buffer. […] To test the direct interaction of MEKK1 with the effector domain of Ras, samples were prepared by pre-incubating the agarose beads with either 100 μM of Ras peptide consisting of residues 17-42 of H-Ras or 100 μM of Ras control peptide ([D-Arg^1,D-Phe^5,DTrp^7,9,Leu^11] substance P peptide for 1 hr at 4° C. prior to addition of the MEK1 substrate. A control reaction containing wild-type MEKK1 which autophosphorylates, served as a marker for the MEKK1 substrate. Reactions were terminated by addition of 5× Laemmlei SDS sample buffer, boiled and resolved by SDS-PAGE.

98 kD PC12 cell MEKK = experiment: MEKK immunoprecipitate kinase assay from PC12 cells with kinase inactive MEK-1; assay type: cell-based; conditions: for MEKK activity after stimulation (in words): serum starved PC12 cells, 5 minutes
Procedure: Reactions were stopped by the addition of 2×SDS sample buffer (20 μl). The samples were boiled for 3 minutes and subjected to SDS-PAGE and autoradiography. Raf-B was immunoprecipitated from the same untreated and treated PC12 cell lysates as above with an antiserum to a COOH-terminal peptide of Raf-B (Santa Cruz Biotechnology, Inc.) and assayed similarly. Raf-1 was immunoprecipitated with an antiserum to the 12 COOH-terminal amino acids of Raf-1 (Santa Cruz Biotechnology, Inc.).
Data represent the relative magnitude of the response for each timepoint as quantitated by phosphorimager analysis of radioactive gels from a typical experiment.
Expression of N^17Ras was induced in PC12 clones stably transfected with the N^17Ras gene by the addition of dexamethasone to the starvation media. […] PC12 cell clones stably transfected with the N^17Ras gene are less responsive to EGF-mediated activation of MEKK activity than are wild type PC12 cells. […] MEKK activity in immunoprecipitates or column fractions was dissociable from that of EGF-stimulated c-Raf-1 and Raf-B activities.
To determine whether the growth factor-mediated activation of 98 kD PC12 cell MEKK was inhibited by PKA, forskolin was used to elevate intracellular cAMP and activate PKA. […] Raf-B activity was also assayed from the same cell lysates to test whether its regulation differed from that of MEKK. Raf-B was immunoprecipitated from the same cell lysates as described above and assayed for its ability to phosphorylate MEK-1 as described above.

Raf-B = Raf-B immunoprecipitate kinase assay from PC12 cells with kinase inactive MEK-1; assay type: cell-based; conditions: PC12 cells, EGF 30 ng/ml 5 minutes
L929 cells = experiment: Propidium iodide staining of L929 clones with inducible N17 Ras or V12 Ras; assay type: cell-based, murine; conditions: IPTG-induced expression
Procedure: Ras expression was induced with 5 mM IPTG for 10 hours and cells were subsequently treated with 5 ng/ml TNFα in the presence or absence of 0.5 ng/ml bFGF for 16 hours. Cells were fixed and stained with propidium iodide. The percentage of apoptotic cells was calculated. Solid bars represent cells induced with IPTG; hatched bars, induced with IPTG and treated with TNFα; checked bars, induced with IPTG and treated with TNFα and bFGF.
Cell lines and culture. […] JNK activity was measured using a solid state kinase assay in which glutathione S-transferase-c-Jun (1-79) (GST-JUN) cound to glutathione-Sepharose 4B beads was used to affinity purify JNK and then JNK activity was measured in an in vitro kinase assay using the sepharose bound GST-Jun as a substrate (Hibi, M., et al. (1993) Genes & Development 7:2135-2148). […] MAPK Assay MAPK activity was measured exactly as described previously (Gardner, A. M., et al. (1994) Meth. Enzymol. 238:258-270) with the exception that MonoQ FPLC fractionation was replaced by step elution from a DEAE-Sephacel column using 0.5 M NaCl in loading buffer. […]

JNK = JNK solid state kinase assay (GST-Jun) in L929 cells; assay type: cell-based, murine; conditions: L929 cells
Procedure: (§1) In panel A cells were treated for 10 minutes with the indicated concentration of TNFα. JNK activation was measured using a solid phase kinase assay resulting in phosphorylation of GST-Jun. In […] the time course of MAPK activation is shown. MAPK was isolated from cell lysates on DEAE sephacel columns and MAPK activation was measured by phosphorylation of the EGFR peptide substrate. Panel C depicts the concentration curve of MAPK activation by TNFα. Cells were treated with the indicated concentration of TNFα and MAPK was assayed.
(§2) Cell lines and culture. L929 cells (ATCC CCL1 were maintained in Dulbecco's modified Eagle's medium with 5% newborn calf serum and 5% bovine calf serum (BCS) supplemented with 100 ug/ml streptomycin and 100 U/ml penicillin. The cells were grown in 10 cm dishes at 37° C. in 7.5% CO2. Cells were made quiescent where indicated by incubation in Dulbecco's modified Eagle's medium and 0.1% bovine serum albumin for 24 h. Recombinant murine TNFα and recombinant human bFGF (147aa) were from R&D Systems, Minneapolis, Minn. Cells were pretreated where indicated with the MEK-1 inhibitor PD#098059 (Parke-Davis Pharmaceutical Corp. Ann Arbor, Mich.) for 1 h at 37° C. Cells were stimulated by incubation with the indicated cytokine or growth factor for various times at 37° C. Stimulation was stopped by rinsing the plates twice with ice cold phosphate buffered saline (PBS) and lysing the cells in the appropriate lysis buffer. Cells were scraped from the plates and nuclei were pelleted for 10 min at 14,000 RPM in a microcentrifuge. JNK assay. JNK activity was measured using a solid state kinase assay in which glutathione S-transferase-c-Jun (1-79) (GST-JUN) cound to glutathione-Sepharose 4B beads was used to affinity purify JNK and then JNK activity was measured in an in vitro kinase assay using the sepharose bound GST-Jun as a substrate (Hibi, M., et al. (1993) Genes & Development 7:2135-2148). Stimulated or unstimulated cells were lysed in 0.5% Nonidet P-40, 20 mM HEPES pH 7.2, 100 mM NaCl, 2 mM dithiothreitol, 1 mM EDTA, 1.0 mM phenylmethylsulfonylfluoride, 1 μg/ml aprotinin and the nuclei pelleted. Lysates were normalized for protein content. JNK was affinity purified from 50-100 μg of cell lysate by the addition of 10 ul of GST-Jun sepharose slurry (2 μg GST-Jun). Binding to GST-Jun efficiently isolates the two major forms of JNK (p45 and p55) and under the conditions used JNK isolation was linear for 10-250 μg of cell lysate. The lysates were rotated at 4° C. for 1-3 h. Beads were washed twice in lysis buffer and then twice in PAN (10 mM PIPES, pH 7.0, 100 mM NaCl, 21 μg/ml aprotinin). Kinase reactions were carried out at 30° C. for 15 min in 20 mM Hepes pH 7.2, 20 mM β-glycerophosphate, 10 mM p-nitrophenyl phosphate, 10 mM MgCl2, 1 mM dithiothreitol, 50 μm sodium vanadate, 10 μCi γ^32P-ATP 4300 Ci/mmole. The kinase reaction was linear from 0-30 min. MAPK Assay MAPK activity was measured exactly as described previously (Gardner, A. M., et al. (1994) Meth. Enzymol. 238:258-270) with the exception that MonoQ FPLC fractionation was replaced by step elution from a DEAE-Sephacel column using 0.5 M NaCl in loading buffer. The eluate was assayed in triplicate using the epidermal growth factor receptor 662-681 peptide (EGFR662-681) as a selective substrate for MAPK activity (Heasley, L. E., et al. (1994) American Journal of Physiology (Renal Fluid Electrolyte Physiol. 36) 267:F366-F373). […] Cells were lysed by scraping in ice cold RIPA buffer (50 mM Tris-HCl, pH 7.2, 150 mM NaCl, 0.1% SDS, 0.5% sodium deoxycholate, 1.0% Triton X-100, 10 mM sodium pyrophosphate, 25 mM β-glycerophosphate, 2 mM sodium vanadate, 2.1 μg/ml aprotinin) and the nuclei were pelletted. […]

p42/p44 MAPK = experiment: MAPK assay (DEAE-Sephacel, EGFR662-681 peptide) in L929 cells; assay type: cell-based, murine; conditions: L929 cells
Procedure: as §1
FIG. 26 depicts the activation of MAPK by bFGF in L929 cells. Serum starved L929 cells were stimulated for 10 min with the indicated concentration of bFGF.
as §2

Swiss 3T3 cells = experiment: MEKKCOOH-induced cell death after nuclear microinjection of expression plasmids; assay type: cell-based
Procedure: Swiss 3T3 and REF52 cells were plated on acid-washed glass cover slips in Dulbecco's Modified Eagle's Medium (DMEM) and 10% bovine calf serum (BCS) or newborn calf serum (NCS). Cells were placed in DMEM/0.1% calf serum for overnight incubation prior to microinjection and used for injection at 50-70% confluence. Injections were performed with an Eppendorf automated microinjection system with needles pulled from glass capillaries on a vertical pipette puller (Kopf, Tujunga, Calif.). Cells were injected with pCMVβ-gal in the presence or absence of pCMV5MEKKCOOH or pCMV5BxBRaf at 20-100 ng/μl for each expression plasmid in 100 mM KC1, 5 mM NaPO4, pH 7.3. Following injection cells were placed in 1% NCS for 12-18 hr (Swiss 3T3) or 42 hr (REF52) prior to fixation with paraformaldehyde and staining. Similar results were obtained when cells were placed in 10% NCS after microinjection. Propidium iodide ([…]) was used to stain DNA. X-Gal reactions were performed for six hr.
Swiss 3T3 cells were microinjected with 100 ng/μl pCMVβ-gal and 20 ng/μl pCMV5MEKKCOOH. To label free DNA ends fixed and rehydrated cells were incubated with terminal deoxytransferase (TDT) and 10 nM biotin-dUTP following the manufacturer's instructions (Boehringer-Mannheim). Cells were stained with FITC-streptavidin to label DNA fragments. β-gal was detected using rabbit anti-p-gal antibody (Cappel Labs) and a rhodamine-labeled goat anti-rabbit antibody (Cappel Labs).
Seventeen hours after injection cells were fixed and stained for, β-galactosidase activity with X-Gal. Injected cells attached to the coverslip were scored as positive for cell death when they were highly condensed, small round cells.

[1] = 100 ng/μl plasmids, seventeen hours after injection, X-Gal

- effect on binding of GST-Ras^V12(GTPγS) agarose to MEKKCOOH-His (GST-Ras^V12): prevented the binding
Compound: Ras effector peptide: Ras peptide consisting of residues 17-42 of H-Ras (SALTIQLIQNHFVDEYDPTIEDSYRK; UniProt P01112 17-42, looked up, fragment)

- effect on binding of GST-Ras^V12(GTPγS) agarose to MEKKCOOH-His (GST-Ras^V12): able to bind
Compound: [D-Arg^1,D-Phe^5,D-Trp^7,9,Leu^11] substance P peptide [reference compound]

Compound: NGF: Nerve growth factor
- MEKK activity after stimulation (in words) (98 kD PC12 cell MEKK): slight increase in MEKK activity; also recorded: also activated MEKK, although to a lesser degree than EGF

Compound: CCCCCCCCCCCCCC(=O)O[C@@H]1[C@@H](C)[C@@]2(O)[C@@H](C=C(CO)C[C@]3(O)C(=O)C(C)=C[C@@H]23)[C@H]2C(C)(C)[C@]12OC(C)=O [TPA, reference compound]
- MEKK activity after stimulation (in words) (98 kD PC12 cell MEKK): also activated MEKK, although to a lesser degree than EGF

Compound: N17 Ras: Dominant negative Ha-ras (Asn 17), inhibitory Ras [reference compound]
- effect on activation of MEKK by EGF (98 kD PC12 cell MEKK; PC12 cells, EGF 30 ng/ml 5 minutes): inhibited the activation of MEKK by EGF
- effect on activation of Raf-B by EGF (Raf-B): greatly reduced
- effect on TNFα induced apoptosis (L929 cells; 5 ng/ml TNFα): did not affect
- effect on ability of bFGF to protect against TNFα-mediated cell death (L929 cells; TNFα plus bFGF): markedly inhibit
- effect on TNFα stimulation of JNK (JNK): had no effect on TNF stimulation of JNK
- effect on bFGF stimulation of MAPK activity (p42/p44 MAPK): significantly blunted bFGF stimulation of MAPK

Compound: β-gal [reference compound]
- Condensed Cells (number) (Swiss 3T3 cells; [1]): 4
- Condensed Cells (percent of cells injected) (Swiss 3T3 cells; [1]): (1%)
- injected cells with an altered morphology (Swiss 3T3 cells; 48-72 hours post-injection): < 1%
